# From a melting point compilation (Tetko et al.; mined from patent text by program, amines drawn as free bases though some values may be those of a salt)
# Residues, ends and D or L forms follow the SMILES beside them. *: point of attachment. Cbz = O=C(OCc1ccccc1)*
row,melting point [°C],SMILES
1,148 to 150,O=S(=O)(c1ccc(I)cc1)N1CCC(Br)(Br)C(c2ccc(Cl)c(C(F)(F)F)c2)=N1
2,86 to 87,CC(=O)Sc1c(F)c(F)c(C=O)c(F)c1F
3,180 to 182,Cc1ccc(Cc2cnc(NCCCCNc3ncccc3Cl)[nH]c2=O)cn1
4,199,CCC(C)N1CCc2cnc3ccnn3c21 (stereo unspecified)
5,49,CCCCCCCCCCCCCCCCOCC(O)COC(c1ccccc1)(c1ccccc1)c1ccccc1 (stereo unspecified)
6,67 to 68,CC(=O)CC1(C)C=NC=CN1c1ccccc1 (stereo unspecified)
7,106 to 107,CCCn1nc(-c2ccc(OC)cc2)cc(C(=O)NC)c1=O
8,> 300,O=C1c2ccccc2-c2[nH]c(=O)cnc21
9,195 to 196,CCOC(=O)c1ccc(COCc2csc3nc(C(=O)NCc4cccc(CS(C)=O)c4)[nH]c(=O)c23)cc1 (stereo unspecified)
10,275 to 276,Oc1c(C(=S)NCc2ccc(Cl)cc2)cnc2ccc(I)cc12
11,124,O=C(c1cccnc1)c1cc(-c2ccncc2)c(N2CCOCC2)s1
12,258 to 259,CCCn1c(=O)nc(SC)c2[nH]c(C3CCCC3)nc21
13,253 to 254,O=C1c2ccc(C(F)(F)F)cc2C(=O)c2cc3ccccc3cc21
14,165,Clc1ccc(OCC2COC(CBr)(c3ccc(Cl)cc3)O2)cc1 (stereo unspecified)
15,149 to 150,CCCc1csc2ncc(C(=O)OC)n12
16,114 to 116,CN(CCCCCCO)c1ccc(N=Nc2ccc(S(C)(=O)=O)cc2)cc1
17,86 to 87,O=C(OCC1CCCCCCCCCC1)n1c(-c2cscn2)nc2ccccc21
18,52 to 57,COCCc1nc2c(N)nc3ccccc3c2n1CCOCCN(C)C(=O)C1CCCCC1
19,127 to 128,O=C1CN(c2ccccc2)C(=O)N1C(=O)c1ccccc1Oc1ccccc1
20,170 to 173,O=C1C(c2ccccc2)=CC(=O)c2c(O)c(-c3ccccc3)cc(O)c21
21,42.5 to 43.5,CCOC(=O)CCc1ccc(OC(C)C)nc1Oc1ccc(Cl)cc1Cl
22,146,Cc1cc2c(Br)ccc([N+](=O)[O-])c2cn1

row,melting point [°C],SMILES
1,154 to 156,CC(=O)Nc1ccccc1S(N)(=O)=O
2,73.5 to 75,O=S(=O)(CC(F)(F)F)Oc1cccc(OS(=O)(=O)CC(F)(F)F)c1OS(=O)(=O)CC(F)(F)F
3,136,O=C(Nc1cccc2ccccc12)c1ccn2c1CSC2c1cccnc1 (stereo unspecified)
4,115 to 116,Cn1nc(Cc2ccc([N+](=O)[O-])cc2)oc1=O
5,158 to 159,CCc1nn(-c2ccc3cc(N=CN(C)C)c(=O)oc3c2)nc1C
6,153 to 156,Cc1nnsc1C(=O)Nc1ccc(-n2nc(C3CC3)c(Cl)c2C2CC2)c(F)c1
7,101 to 102,CN1CCCC1CCOc1ccccc1CCc1cccc(C#N)c1 (stereo unspecified)
8,118,COc1ccc(COCn2cc(Cl)cnc2=O)cc1
9,96 to 97,CCOC(=O)c1nc(CCl)n(-c2ccc(Br)cc2C(=O)c2ccccn2)n1
10,102 to 103,CCOC(=O)CSC1=C(C=O)CCc2c(C(=O)OCC)sc(SC)c21
11,203 to 204,O=C(CCl)c1ccc2c(c1)[nH]c1ccccc12
12,166,C[C@]12C[C@H](c3ccc(OCCCCCS(=O)(=O)CCCC(F)(F)C(F)(F)F)cc3)[C@@H]3c4ccc(OC5CCCC5)cc4CC[C@H]3[C@@H]1CC[C@@H]2O
13,185 to 188,C=C1CSC2C(NC(=O)COc3ccccc3)C(=O)N2C1C(=O)O (stereo unspecified)
14,76 to 77,COC(=O)C1(CC(CCCl)=C(C)C)C(=O)C=C(OC(C)C)CC1C (stereo unspecified)
15,180 to 181,CC(C)(C)OC(=O)Nc1cc(OCc2ccccc2)c2ncccc2c1
16,183 to 184,CC(=O)c1ccc(C(=O)Nc2ccc(C(C)(C)C)cc2)cc1
17,182 to 186,O=C(O)CCn1cc(Br)c2c3c(c(-c4ccccc4Cl)cc21)C(=O)NC3=O
18,95,Fc1ccc(C(c2ccc(F)cc2)c2cc(Cl)cc(Cl)c2S)cc1
19,127 to 130,O=C(CC(CC1CCCCC1)(C(=O)O)C(=O)O)c1ccco1
20,207 to 210,CN(Cc1cc2cc(Cl)ccc2o1)C1CCN(c2ccc(OC[C@@]3(C)Cn4cc([N+](=O)[O-])nc4O3)cc2)CC1
21,188 to 191,O=c1ccn(C2C=CC(COC(c3ccccc3)(c3ccccc3)c3ccccc3)O2)c(=O)[nH]1 (stereo unspecified)
22,203 to 205,CC(C)(C)OC(=O)c1ccsc1NC(=O)Nc1ccc(Oc2ccccc2)cc1

row,melting point [°C],SMILES
1,> 260,Cc1cnc(Cl)c2c3cc(O)ccc3n(C)c12
2,42 to 43,CC1Cc2cccc(Cl)c2C1=O (stereo unspecified)
3,144,C[C@@H](N[C@@H](CC(=O)O)Cc1cc(F)c(F)cc1F)c1ccccc1
4,282 to 285,COc1cc(C(=O)NCC(=O)O)ccc1NS(=O)(=O)c1sc2ccc(Cl)cc2c1C
5,130 to 131,COC(=O)CCc1sc(N)nc1-c1ccccc1
6,138 to 139,Cc1csc(C2=C(c3ccc(S(C)(=O)=O)cc3)CCC2)c1
7,161 to 163,CC1(C)CCC(C)(C)c2cc(-c3cc(-c4ccc(C(=O)O)cc4)ccc3-c3ccccc3O)ccc21
8,221 to 222,N#CC(=NNC(=N)N)c1cccc(Cl)c1Cl
9,212,CC1(N)CCN(C2=Nc3c(nc(Cl)nc3Nc3ccc(F)c(Cl)c3)CN2)CC1
10,187 to 189,O=C1C(Cc2ccccc2)NC(=S)N1c1nc(C(F)(F)F)cs1 (stereo unspecified)
11,160 to 162,CC(=O)Nc1ccc(S(=O)c2ccc(Cl)cc2)cc1 (stereo unspecified)
12,82,CCOC(=O)CC(NS(=O)(=O)c1cccc(-c2cccc(NC(=NC#N)NCc3ccccn3)c2)c1)c1ccccc1 (stereo unspecified)
13,153 to 154,COC(=O)c1cccc(CC2COc3ccc(OCc4ccc5ccccc5n4)cc3C2O)c1 (stereo unspecified)
14,91 to 93,COC(=O)[C@H](Cc1ccccc1)NC(=O)[C@H](CC(C)C)NC(=O)OCc1ccccc1 (Cbz-Leu-Phe-OMe)
15,50 to 50.5,CCCCCCCCC=CCCCCCCCC(=O)NCCCSc1ccncc1
16,53 to 56,CCOC(=O)C(=Cc1ccc(C)s1)C(=O)OCC
17,201 to 203,COc1cc(OC)nc(NC(=O)NS(=O)(=O)c2ccccc2S(=O)(=O)NC(=O)Nc2nc(OC)cc(OC)n2)n1
18,97.6 to 98.5,O=C(CCCCC1CCSS1)N1CCN(c2ccc([N+](=O)[O-])cc2)CC1 (stereo unspecified)
19,> 300,O=C1N=NC(=O)c2c1[nH]c1cc(Cl)cc(Cl)c21
20,183 to 185,NC(=O)NC1CCN(Cc2ccc3ccccc3c2)CC1
21,240 to 242,O=C(NCC1CC1)c1c(NC(=O)c2cc(C(F)(F)F)nn2-c2ncccc2Cl)ccc2cn[nH]c12
22,101 to 103,COc1ccc(C(=O)CO)cc1

row,SMILES,melting point [°C]
1,Cc1nnc2n1-c1sc(CCc3ccc(CC(C)C)cc3)cc1C(c1ccccc1Cl)=NC2C (stereo unspecified),130 to 132
2,c1ccc(CSc2ncccc2C2=NOCC2)cc1,97 to 98
3,C=C1CCC2(Cc3ccccc3)C3Cc4ccc(O)cc4C2(CCN3CC2CC2)C1 (stereo unspecified),212
4,CCCNc1ccc([N+](=O)[O-])cc1C(=O)c1ccccc1,150
5,O=C(Nc1csc(Br)n1)C(Cl)(Cl)Cl,77 to 80
